In patent US9085576B2 (AMGEN INC., priority 2013, dated 2015):
Counter-ions that a name gives are not always drawn. Blank lines part the entries; values can stand above or below the molecule they belong to.

How the values were obtained:
[1] = biological target: Beta Secretase enzyme (BACE) (Homo sapiens (Human), UniProt P56817); assay: In vitro enzymatic BACE FRET assay; type: biochemical; details: read-out: BACE1 Enzyme assay IC50
[2] = biological target: Cathepsin D (Cat D) (Homo sapiens (Human), UniProt P07339); assay: In vitro enzymatic Cathepsin D (Cat D) FRET assay; type: biochemical; details: read-out: CatD IC50
[3] = tested on: Abeta 40; assay: In vivo inhibition of beta-secretase: Abeta 40 reduction in CSF and brain of the rat; details: after 4 hrs; for % reduction of rat CSF levels (3 mpk) / % reduction of rat CSF levels at 10 pmk: Abeta 40 in rat CSF; for % reduction of rat CSF levels at 10 pmk / % reduction of rat brain levels at 10 mpk: 10 mpk; for % reduction of rat brain levels (3 mpk) / % reduction of rat brain levels at 10 mpk: Abeta 40 in rat brain
[4] = biological target: BACE (Homo sapiens (Human), UniProt P56817); assay: In vitro BACE cell-based assay (Aβ40 in conditioned medium, sandwich ELISA)
Chain of BACE (P56817 46-501, species assumed): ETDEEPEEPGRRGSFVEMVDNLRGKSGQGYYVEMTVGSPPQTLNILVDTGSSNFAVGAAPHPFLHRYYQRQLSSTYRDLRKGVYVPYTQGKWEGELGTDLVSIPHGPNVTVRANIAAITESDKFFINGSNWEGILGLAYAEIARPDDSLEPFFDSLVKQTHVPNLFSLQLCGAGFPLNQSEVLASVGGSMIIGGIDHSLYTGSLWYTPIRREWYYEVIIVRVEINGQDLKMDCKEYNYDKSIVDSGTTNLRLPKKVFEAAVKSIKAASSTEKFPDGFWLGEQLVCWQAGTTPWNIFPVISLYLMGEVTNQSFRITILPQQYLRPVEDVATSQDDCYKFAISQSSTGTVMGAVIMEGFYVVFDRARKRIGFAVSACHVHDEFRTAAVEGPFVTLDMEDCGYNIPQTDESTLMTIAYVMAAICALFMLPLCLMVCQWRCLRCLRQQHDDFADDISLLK

Chain of Cathepsin D (Cat D) (P07339 65-412, species assumed): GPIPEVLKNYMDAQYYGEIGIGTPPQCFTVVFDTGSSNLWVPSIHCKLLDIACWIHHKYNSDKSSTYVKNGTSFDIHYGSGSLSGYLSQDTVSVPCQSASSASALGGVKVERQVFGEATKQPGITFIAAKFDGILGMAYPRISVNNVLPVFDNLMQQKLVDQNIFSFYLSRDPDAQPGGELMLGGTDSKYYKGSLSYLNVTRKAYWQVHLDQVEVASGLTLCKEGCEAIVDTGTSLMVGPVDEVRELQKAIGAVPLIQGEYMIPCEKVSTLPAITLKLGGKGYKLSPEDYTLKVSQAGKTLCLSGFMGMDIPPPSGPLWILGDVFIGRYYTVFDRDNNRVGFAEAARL
Chain of Beta Secretase enzyme (BACE) (P56817 46-501): as the sequence (P56817 46-501, species assumed) above

IC50 [1]: 0.0441 µM | IC50 [2]: 2870 µM | IC50 [4]: 0.006 µM
Structure (SMILES): NC1=N[C@](CF)(c2cc(NC(=O)c3ncc(Cl)cc3Cl)ccc2Cl)[C@H]2C[C@H]2O1 [Example 281, N-(3-((1R,5S,6R)-3-amino-5-(fluoromethyl)-2-oxa-4-azabicyclo[4.1.0]hept-3-en-5-yl)-4-chlorophenyl)-3,5-dichloropicolinamide]
% reduction of rat CSF levels (3 mpk) [3]: 55 (3 mpk) % | % reduction of rat CSF levels at 10 pmk [3]: 70% | % reduction of rat brain levels (3 mpk) [3]: 34 (3 mpk) % | % reduction of rat brain levels at 10 mpk [3]: 72%

IC50 [1]: 0.0116 µM | IC50 [2]: 1350 µM | IC50 [4]: 0.0175 µM
Structure (SMILES): COCc1cc(C#N)cnc1C(=O)Nc1ccc(F)c([C@@]2(C(F)F)N=C(N)O[C@@H]3C[C@@H]32)c1 [Example 391, N-(3-((1R,5S,6R)-3-amino-5-(difluoromethyl)-2-oxa-4-azabicyclo[4.1.0]hept-3-en-5-yl)-4-fluorophenyl)-5-cyano-3-(methoxymethyl)picolinamide]
% reduction of rat CSF levels at 10 pmk [3]: 54% | % reduction of rat brain levels at 10 mpk [3]: 24%

IC50 [2]: 335 µM
Structure (SMILES): Cc1cc(Cl)cnc1C(=O)Nc1cc(C)c(F)c([C@@]2(C(F)F)N=C(N)O[C@@H]3C[C@@H]32)c1 [Example 303, N-(3-((1R,5S,6R)-3-amino-5-(difluoromethyl)-2-oxa-4-azabicyclo[4.1.0]hept-3-en-5-yl)-4-fluoro-5-methylphenyl)-5-chloro-3-methylpicolinamide]
% reduction of rat CSF levels at 10 pmk [3]: 57% | % reduction of rat brain levels at 10 mpk [3]: 50%

IC50 [1]: 0.0391 µM | IC50 [2]: 352 µM | IC50 [4]: 0.0145 µM
Structure (SMILES): N#Cc1cnc(C(=O)Nc2ccc(Cl)c([C@@]3(CF)N=C(N)O[C@@H]4C[C@@H]43)c2)c(CO)c1 [Example 387, N-(3-((1R,5S,6R)-3-amino-5-(fluoromethyl)-2-oxa-4-azabicyclo[4.1.0]hept-3-en-5-yl)-4-chlorophenyl)-5-cyano-3-(hydroxymethyl)picolinamide]

IC50 [1]: 0.133 µM | IC50 [2]: 106 µM | IC50 [4]: 0.0624 µM
Structure (SMILES): NC1=N[C@](CF)(c2cc(Nc3ncnc4cc(Cl)cnc34)ccc2F)[C@H]2C[C@H]2O1 [Example 347, (1R,5S,6R)-5-(5-((7-chloropyrido[3,2-d]pyrimidin-4-yl)amino)-2-fluorophenyl)-5-(fluoromethyl)-2-oxa-4-azabicyclo[4.1.0]hept-3-en-3-amine]

IC50 [1]: > 40 µM | IC50 [2]: 2750 µM | IC50 [4]: > 15.6 µM
Structure (SMILES): COc1cnc2c(Nc3ccc(F)c([C@@]4(CF)N=C(N)O[C@@H]5C[C@@H]54)c3F)nccc2n1 [Example 355, (1R,5S,6R)-5-(2,6-difluoro-3-((2-methoxypyrido[3,4-b]pyrazin-5-yl)amino)phenyl)-5-(fluoromethyl)-2-oxa-4-azabicyclo[4.1.0]hept-3-en-3-amine]

IC50 [1]: 0.103 µM | IC50 [2]: 512 µM | IC50 [4]: 0.0116 µM
Structure (SMILES): C[C@]1(c2nc(NC(=O)c3ncc(Cl)cc3Cl)ccc2F)N=C(N)O[C@@H]2C[C@@H]21 [Example 328, N-(6-((1R,5S,6R)-3-amino-5-methyl-2-oxa-4-azabicyclo[4.1.0]hept-3-en-5-yl)-5-fluoropyridin-2-yl)-3,5-dichloropicolinamide]

IC50 [1]: 3.6 µM | IC50 [2]: 1130 µM | IC50 [4]: 0.906 µM
Structure (SMILES): NC1=N[C@@](CF)(c2cc(NC(=O)c3ccc(Br)cn3)ccc2Cl)[C@@H]2C[C@@H]2O1 [Example 275, N-(3-((1S,5R,6S)-3-amino-5-(fluoromethyl)-2-oxa-4-azabicyclo[4.1.0]hept-3-en-5-yl)-4-chlorophenyl)-5-bromopicolinamide]

Continued, molecule first:

Structure (SMILES): N#Cc1cnc(C(=O)Nc2ccc(F)c([C@@]3(C(F)F)N=C(N)O[C@@H]4C[C@@H]43)c2)c(Cl)c1 [Example 66, N-(3-((1R,5S,6R)-3-amino-5-(difluoromethyl)-2-oxa-4-azabicyclo[4.1.0]hept-3-en-5-yl)-4-fluorophenyl)-3-chloro-5-cyanopicolinamide]
IC50 [2]: 825 µM | % reduction of rat CSF levels at 10 pmk [3]: 59% | % reduction of rat brain levels at 10 mpk [3]: 42%

Structure (SMILES): N#Cc1ccc(C(=O)Nc2ccc(F)c([C@@]3(CF)N=C(N)O[C@@H]4C[C@@H]43)c2)nc1 [Example 192, N-(3-((1R,5S,6R)-3-amino-5-(fluoromethyl)-2-oxa-4-azabicyclo[4.1.0]hept-3-en-5-yl)-4-fluorophenyl)-5-cyanopicolinamide]
IC50 [1]: 0.0256 µM | IC50 [2]: 591 µM | % reduction of rat CSF levels at 10 pmk [3]: 81% | % reduction of rat brain levels at 10 mpk [3]: 71% | IC50 [4]: 0.0079 µM

Structure (SMILES): N#Cc1ccc(C(=O)Nc2ccc(Cl)c([C@@]3(C(F)F)N=C(N)O[C@@H]4C[C@@H]43)c2)nc1 [Example 93, N-(3-((1R,5S,6R)-3-amino-5-(difluoromethyl)-2-oxa-4-azabicyclo[4.1.0]hept-3-en-5-yl)-4-chlorophenyl)-5-cyanopicolinamide]
IC50 [2]: 1300 µM | % reduction of rat CSF levels at 10 pmk [3]: 76% | % reduction of rat brain levels at 10 mpk [3]: 83%

Structure (SMILES): C#C[C@H](C)Oc1cnc(C(=O)Nc2ccc(F)c([C@@]3(C(F)F)N=C(N)O[C@@H]4C[C@@H]43)c2)cn1 [Example 162, N-(3-((1R,5S,6R)-3-amino-5-(difluoromethyl)-2-oxa-4-azabicyclo[4.1.0]hept-3-en-5-yl)-4-fluorophenyl)-5-((S)-but-3-yn-2-yloxy)pyrazine-2-carboxamide]
IC50 [2]: 1060 µM | % reduction of rat CSF levels at 10 pmk [3]: 11% | % reduction of rat brain levels at 10 mpk [3]: −7%

Structure (SMILES): N#Cc1cnc(C(=O)Nc2ccc(F)c([C@@]3(CF)N=C(N)O[C@@H]4C[C@@H]43)c2)c(Cl)c1 [Example 228, N-(3-((1R,5S,6R)-3-amino-5-(fluoromethyl)-2-oxa-4-azabicyclo[4.1.0]hept-3-en-5-yl)-4-fluorophenyl)-3-chloro-5-cyanopicolinamide]
IC50 [1]: 0.0419 µM | IC50 [2]: 1010 µM | % reduction of rat CSF levels at 10 pmk [3]: 54% | % reduction of rat brain levels at 10 mpk [3]: 33% | IC50 [4]: 0.0059 µM

Structure (SMILES): CC#CCOc1cnc(C(=O)Nc2ccc(F)c([C@@]3(C(F)F)N=C(N)O[C@@H]4C[C@@H]43)c2)cn1 [Example 96, N-(3-((1R,5S,6R)-3-amino-5-(difluoromethyl)-2-oxa-4-azabicyclo[4.1.0]hept-3-en-5-yl)-4-fluorophenyl)-5-(but-2-yn-1-yloxy)pyrazine-2-carboxamide trifluoroacetate]
IC50 [1]: 0.001 µM | IC50 [2]: 467 µM | % reduction of rat CSF levels at 10 pmk [3]: 24% | % reduction of rat brain levels at 10 mpk [3]: 1% | IC50 [4]: 0.0033 µM

Structure (SMILES): NC1=N[C@@](c2cc(NC(=O)c3cnc(OCc4cocn4)cn3)ccc2F)(C(F)F)[C@H]2C[C@H]2O1 [Example 174, N-(3-((1R,5S,6R)-3-amino-5-(difluoromethyl)-2-oxa-4-azabicyclo[4.1.0]hept-3-en-5-yl)-4-fluorophenyl)-5-(oxazol-4-ylmethoxy)pyrazine-2-carboxamide]
IC50 [1]: 0.0233 µM | IC50 [2]: 925 µM | % reduction of rat CSF levels at 10 pmk [3]: 46% | % reduction of rat brain levels at 10 mpk [3]: 26% | IC50 [4]: 0.0186 µM

Structure (SMILES): Cc1cc(NC(=O)c2ccc(C#N)cn2)cc([C@@]2(C(F)F)N=C(N)O[C@@H]3C[C@@H]32)c1F [Example 390, N-(3-((1R,5S,6R)-3-amino-5-(difluoromethyl)-2-oxa-4-azabicyclo[4.1.0]hept-3-en-5-yl)-4-fluoro-5-methylphenyl)-5-cyanopicolinamide]
% reduction of rat CSF levels at 10 pmk [3]: 71% | % reduction of rat brain levels at 10 mpk [3]: 54%

Structure (SMILES): NC1=N[C@@](c2cc(NC(=O)c3ncc(Cl)cc3Cl)ccc2F)(C(F)F)[C@H]2C[C@H]2O1 [Example 71, N-(3-((1R,5S,6R)-3-amino-5-(difluoromethyl)-2-oxa-4-azabicyclo[4.1.0]hept-3-en-5-yl)-4-fluorophenyl)-3,5-dichloropicolinamide]
IC50 [2]: 478 µM | % reduction of rat CSF levels at 10 pmk [3]: 80% | % reduction of rat brain levels at 10 mpk [3]: 73%

Structure (SMILES): N#Cc1ccc(C(=O)Nc2ccc(F)c([C@@]3(C(F)F)N=C(N)O[C@@H]4C[C@@H]43)c2)nc1 [Example 77, N-(3-((1R,5S,6R)-3-amino-5-(difluoromethyl)-2-oxa-4-azabicyclo[4.1.0]hept-3-en-5-yl)-4-fluorophenyl)-5-cyanopicolinamide]
IC50 [2]: 698 µM | % reduction of rat CSF levels (3 mpk) [3]: 66 (3 mpk) % | % reduction of rat CSF levels at 10 pmk [3]: 78% | % reduction of rat brain levels (3 mpk) [3]: 46 (3 mpk) % | % reduction of rat brain levels at 10 mpk [3]: 71%

Structure (SMILES): NC1=N[C@@](c2cc(NC(=O)c3ncc(Br)cn3)ccc2F)(C(F)F)[C@H]2C[C@H]2O1 [Example 267, N-(3-((1R,5S,6R)-3-amino-5-(difluoromethyl)-2-oxa-4-azabicyclo[4.1.0]hept-3-en-5-yl)-4-fluorophenyl)-5-bromopyrimidine-2-carboxamide]
% reduction of rat CSF levels at 10 pmk [3]: −1% | % reduction of rat brain levels at 10 mpk [3]: 11% | IC50 [4]: 0.015 µM

Structure (SMILES): NC1=N[C@@](c2cc(NC(=O)c3nn(C(F)F)cc3Cl)ccc2F)(C(F)F)[C@H]2C[C@H]2O1 [Example 163, N-(3-((1R,5S,6R)-3-amino-5-(difluoromethyl)-2-oxa-4-azabicyclo[4.1.0]hept-3-en-5-yl)-4-fluorophenyl)-4-chloro-1-(difluoromethyl)-1H-pyrazole-3-carboxamide]
IC50 [2]: 464 µM | % reduction of rat CSF levels at 10 pmk [3]: 33% | % reduction of rat brain levels at 10 mpk [3]: 14%

Structure (SMILES): NC1=N[C@@](c2cc(NC(=O)COc3ccccc3)ccc2F)(C(F)F)[C@H]2C[C@H]2O1 [Example 256, N-(3-((1R,5S,6R)-3-amino-5-(difluoromethyl)-2-oxa-4-azabicyclo[4.1.0]hept-3-en-5-yl)-4-fluorophenyl)-2-phenoxyacetamide]
IC50 [1]: 6.66 µM | IC50 [2]: 331 µM | IC50 [4]: 2.18 µM

Structure (SMILES): NC1=N[C@](c2cc(NC(=O)c3ccc(Cl)cn3)ccc2Cl)(C(F)F)[C@@H]2C[C@@H]2O1 [Example 92, N-(3-((1S,5R,6S)-3-amino-5-(difluoromethyl)-2-oxa-4-azabicyclo[4.1.0]hept-3-en-5-yl)-4-chlorophenyl)-5-chloropicolinamide]
IC50 [1]: 17.1 µM | IC50 [2]: 770 µM | IC50 [4]: > 15.6 µM
